The values that follow come from ChEMBL document CHEMBL1800070, “Inhibition of a prolyl hydroxylase domain (PHD) by substrate analog peptides” (Bioorg Med Chem Lett, 2011).

For assay [1], the target named is T1, Egl nine homolog 1 (Homo sapiens, UniProt Q9GZT9). The assay is described as follows: Inhibition of GST-tagged PHD2 assessed as inhibition of hydroxylation of biotinylated HIF1alpha CODD peptide at 100 uM after 20 mins by MALDI-TOF technique in presence of 2-oxoglutarate.
Target sequence in this assay (Q9GZT9 2-426 limits assumed): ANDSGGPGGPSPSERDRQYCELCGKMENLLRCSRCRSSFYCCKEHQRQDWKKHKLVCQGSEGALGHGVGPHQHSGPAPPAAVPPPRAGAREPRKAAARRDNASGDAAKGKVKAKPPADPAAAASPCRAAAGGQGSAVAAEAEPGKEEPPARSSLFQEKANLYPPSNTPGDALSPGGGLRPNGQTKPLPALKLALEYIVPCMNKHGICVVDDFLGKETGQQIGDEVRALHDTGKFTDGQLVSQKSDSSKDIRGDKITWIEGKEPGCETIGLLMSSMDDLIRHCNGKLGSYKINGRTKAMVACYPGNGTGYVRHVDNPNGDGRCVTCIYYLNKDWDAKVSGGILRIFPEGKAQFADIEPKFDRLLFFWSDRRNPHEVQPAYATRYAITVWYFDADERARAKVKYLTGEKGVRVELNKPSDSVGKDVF
Assay [2] has as its target T1, Egl nine homolog 1. Description: Inhibition of GST-tagged PHD2 assessed as inhibition of hydroxylation of fluorescein-labeled HIF1alpha CODD peptide at 100 uM after 2 hrs by fluorescent polarization assay in presence of 2-oxoglutarate.
Target sequence in this assay (Q9GZT9 2-426 limits assumed): as above
In assay [3] the target is T1, Egl nine homolog 1. Description: Inhibition of GST-tagged PHD2 assessed as inhibition of hydroxylation of fluorescein-labeled HIF1alpha CODD peptide after 1 hr by fluorescent polarization assay in presence of 2-oxoglutarate.
Target sequence in this assay (Q9GZT9 whole entry): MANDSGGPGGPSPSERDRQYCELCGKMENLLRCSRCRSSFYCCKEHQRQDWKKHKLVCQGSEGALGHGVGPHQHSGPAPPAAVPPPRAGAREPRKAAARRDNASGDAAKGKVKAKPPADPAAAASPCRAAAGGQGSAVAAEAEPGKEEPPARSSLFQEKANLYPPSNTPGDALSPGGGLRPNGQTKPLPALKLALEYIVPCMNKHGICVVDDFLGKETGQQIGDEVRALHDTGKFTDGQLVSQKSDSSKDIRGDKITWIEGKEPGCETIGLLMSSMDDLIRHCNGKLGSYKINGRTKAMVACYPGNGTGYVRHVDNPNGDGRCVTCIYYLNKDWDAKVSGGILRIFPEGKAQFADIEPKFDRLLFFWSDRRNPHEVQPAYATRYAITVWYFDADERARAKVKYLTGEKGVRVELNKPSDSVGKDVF
Assay [4] deals with T1, Egl nine homolog 1. Description: Competitive inhibition of GST-tagged PHD2 active site assessed as inhibition of hydroxylation of fluorescein-labeled HIF1alpha CODD peptide at 100 uM after 2 hrs by fluorescent polarization assay in presence of 2-oxoglutarate.
Target sequence in this assay (Q9GZT9 2-426 limits assumed): as the sequence (Q9GZT9 2-426 limits assumed) above
Assay [5] has as its target Hypoxia-inducible factor 1-alpha inhibitor (Homo sapiens) (UniProt Q9NWT6). Description: Inhibition of FIH assessed as inhibition of hydroxylation of C-TAD peptide at 100 uM after 2 hrs by fluorescent polarization assay in presence of 2-oxoglutarate.
Assay [6] deals with T1, Egl nine homolog 1. Description: Inhibition of PHD2 in human HeLa cells assessed as stabilization of HIF1alpha at 1 mM incubated for 6 hrs under normoxic conditions by Western blot analysis relative to control. It counts as cell-based.
Target sequence in this assay (Q9GZT9 2-426 limits assumed): as above
The target in assay [7] is T1, Egl nine homolog 1. The assay is described as follows: Competitive inhibition of GST-tagged PHD2 active site assessed as inhibition of hydroxylation of fluorescein-labeled HIF1alpha CODD peptide at 200 uM after 2 hrs by fluorescent polarization assay in presence of 2-oxoglutarate.
Target sequence in this assay (Q9GZT9 2-426 limits assumed): as above
Assay [8] concerns the target T1, Egl nine homolog 1. Description: Inhibition of PHD2 in human HeLa cells assessed as stabilization of HIF1alpha at 100 uM incubated for 6 hrs under normoxic conditions by Western blot analysis relative to control. It counts as cell-based.
Target sequence in this assay (Q9GZT9 2-426 limits assumed): as above

Calls of active or inactive are those of the source. No cut-off for these calls is given here.

Hypoxia-inducible factor 1-alpha inhibitor (Homo sapiens), sequence (Q9NWT6 whole entry): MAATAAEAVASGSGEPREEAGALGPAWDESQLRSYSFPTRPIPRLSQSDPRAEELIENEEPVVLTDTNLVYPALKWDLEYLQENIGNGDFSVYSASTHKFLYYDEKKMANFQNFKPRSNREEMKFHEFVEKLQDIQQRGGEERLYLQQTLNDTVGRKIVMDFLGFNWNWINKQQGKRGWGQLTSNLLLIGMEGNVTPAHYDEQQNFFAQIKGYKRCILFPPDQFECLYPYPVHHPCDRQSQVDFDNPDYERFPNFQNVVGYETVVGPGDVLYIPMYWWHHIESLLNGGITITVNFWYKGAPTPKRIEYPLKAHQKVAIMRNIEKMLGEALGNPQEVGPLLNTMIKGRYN

As for `O=C(O)[C@@H]1C[C@@H](F)CN1`, the “inhibition (active/inactive call)” value on Egl nine homolog 1 [1] is “inactive”.
With `O=C(O)[C@@H]1CC(=S)CN1`, the inhibition entry (at Egl nine homolog 1 [2]; in assay [5]) was “Active” each time. Further, on Egl nine homolog 1 [1], the “inhibition (active/inactive call)” value is “Active”. The IC50 on Egl nine homolog 1 [3] was 69.7 µM. On Egl nine homolog 1 [4], the inhibition result is “inactive”.
For the molecule `O=C(O)[C@@H]1C[C@@H](O)CN1`, the “inhibition (active/inactive call)” value at Egl nine homolog 1 [1] is “inactive”.
Take `O=C(O)[C@@H]1C=CCN1`: the inhibition result (at Egl nine homolog 1 [2]; in assay [5]) was “Active” throughout. The “inhibition (active/inactive call)” value at Egl nine homolog 1 [1] is “Active”. In addition, the result at Egl nine homolog 1 [6] was Active. Also, on Egl nine homolog 1 [3], the 50% inhibitory concentration (IC50) turned out to be 8.5 µM. Besides, at Egl nine homolog 1 [4], the inhibition entry is “inactive”.
Turning to `O=c1cc(-c2ccccc2)oc2cc(O)c(O)c(O)c12`, the inhibition entry (at Egl nine homolog 1 [7]; in assay [5]) was “Active” each time. For the same molecule, the outcome on Egl nine homolog 1 [8] was Active.
